The values below come from publication PMC9897767, “Assessments of CYP‑inhibition‑based drug–drug interaction between vonoprazan and poziotinib in vitro and in vivo” (Pharmaceutical Biology, 2023).

Where two headings read alike, the source gives them in different places.

Details of data set [1]: method as in Suzuki et al. ([2021]). The conditions noted are these: kidney transplant recipients, after switching from rabeprazole to vonoprazan coadministration; ref Suzuki et al. ([2021]); cited from earlier work.
For data set [2], the system named is metabolism of vonoprazan in rat liver microsomes. Description: Inhibition of vonoprazan metabolism by poziotinib in rat liver microsomes. In kind it is in vitro ADME. The procedure: Rat liver microsomes (RLMs) were prepared according to the previously reported differential centrifugation method (Eriksson [1978]; Wang et al. [2018]), and the concentration of total protein in the RLM was determined to be 28 mg/mL by the BCA protein quantitative method. Then, a 200 μL incubation system was established, which consisted of 5 μg RLM, 100 mM phosphate buffer (pH 7.4), 10 μM vonoprazan (close to its Km), and a series gradient concentration of poziotinib (100, 50, 10, 5, 1, 0.1, 0.01 μM). The mixture was preincubated at 37 °C for 5 min, and NADPH (1 mM) was then added to start the reaction after vortexing. The mixture was placed at 37 °C in a water bath for 30 min with shaking, and 200 μL acetonitrile was added to terminate the reaction and precipitate the protein. Diazepam-acetonitrile solution was then added accurately to serve as the internal standard. After vortexing, the mixture was centrifuged at 12,000 rpm for 10 min and the supernatant was transferred to the sample bottle for further separation. Vonoprazan and its metabolite M-I were detected by UPLC-MS/MS according to the previously reported method (Shen et al. [2020]). The nonlinear regression equation was fitted with GraphPad Prism 9.0 software to calculate the IC50 value of poziotinib.
To better understand the inhibitory mechanism of poziotinib on vonoprazan, a series of gradient concentrations of vonoprazan were used in the reaction, which included 1/4-, 1/2-, 1-, and 2-times the Km value. Similarly, concentrations of 0, 1/4-, 1/2-, 1-, and 2-times the IC50 of poziotinib were also included in the experiment. The above mentioned UPLC-MS/MS method was used for the quantification of the vonoprazan metabolite M-I. Ki and αKi values were calculated, and the inhibitory mechanism was analyzed using a primary Lineweaver-Burk diagram, Dixon diagram, and secondary Lineweaver-Burk diagram by GraphPad Prism 9.0.
A general note: Liver microsomes are a subcellular fraction often used to study metabolism.

Data set [3] in a line: Michaelis-Menten kinetics of vonoprazan in rat liver microsomes. Format: in vitro ADME. The conditions noted are these: pH 7.4, vonoprazan as substrate. The procedure:
Rat liver microsomes (RLMs) were prepared according to the previously reported differential centrifugation method (Eriksson [1978]; Wang et al. [2018]), and the concentration of total protein in the RLM was determined to be 28 mg/mL by the BCA protein quantitative method. Then, a 200 μL incubation system was established, which consisted of 5 μg RLM, 100 mM phosphate buffer (pH 7.4), 10 μM vonoprazan (close to its Km), and a series gradient concentration of poziotinib (100, 50, 10, 5, 1, 0.1, 0.01 μM). The mixture was preincubated at 37 °C for 5 min, and NADPH (1 mM) was then added to start the reaction after vortexing. […] Vonoprazan and its metabolite M-I were detected by UPLC-MS/MS according to the previously reported method (Shen et al. [2020]). […]
To better understand the inhibitory mechanism of poziotinib on vonoprazan, a series of gradient concentrations of vonoprazan were used in the reaction, which included 1/4-, 1/2-, 1-, and 2-times the Km value. […] The above mentioned UPLC-MS/MS method was used for the quantification of the vonoprazan metabolite M-I. Ki and αKi values were calculated, and the inhibitory mechanism was analyzed using a primary Lineweaver-Burk diagram, Dixon diagram, and secondary Lineweaver-Burk diagram by GraphPad Prism 9.0.

The nature of data set [4]: Pharmacokinetics of vonoprazan and metabolite M-I in rats with and without poziotinib pretreatment. The conditions noted are these: vonoprazan; for CL/F / Cmax / Tmax / half-life / MRT last / MRT inf / Vd/F: male, Sprague-Dawley, rat, serum, po, 10 mg/kg; for CL/F: 10 mg/kg gavage, read-out: CLz/F (converted); for MRT last: read-out: MRT(0-t); for MRT inf: read-out: MRT(0-∞); for Vd/F: read-out: Vz/F. In kind it is in vivo, Sprague-Dawley (SD) rats. The procedure: Twelve healthy male SD rats were randomly divided into two groups. The poziotinib group was given 5 mg/kg poziotinib by gavage every day for 7 days, and rats in the control group only received equal amounts of 0.5% CMC-Na solution in the pre-treatment time. Then animals in the poziotinib group and the control group were fasted for 12 h. On Day 8, the poziotinib group was given poziotinib (5 mg/kg) by gavage, and vonoprazan (10 mg/kg) was given 30 min later, while the control group was only given vonoprazan (10 mg/kg) by gavage. Tail venous blood (300 µL) was collected at 0.083, 0.25, 0.5, 1, 2, 3, 4, 6, 12, and 24 h after the administration of vonoprazan, and then the blood was centrifuged at 4,000 rpm, and 4 °C for 10 min. The serum was collected and stored at −80 °C. After thawing at room temperature, 100 μL of the serum sample was removed and 200 μL of acetonitrile containing diazepam (500 ng/mL) was then added to precipitate proteins. After vortexing, 150 μL of supernatant was removed and centrifuged at 13,000 rpm for 5 min. Then, 2 μL of sample was used for the detection of vonoprazan and its main metabolite M-I by UPLC-MS/MS.
DAS (version 3.2.8; The People’s Hospital of Lishui) was used to fit and calculate the pharmacokinetic parameters of vonoprazan and its metabolite M-I, which include peak time (Tmax), maximum plasma concentration (Cmax), elimination half-life (T1/2), area under the drug-time curve (AUC) and clearance rate (CLz/F). SPSS (version 25.0, IBM, USA) was used for the data processing. Student’s t-test was used to compare the normal distribution of the data, and the Mann–Whitney U test was used for the nonnormal distribution of the data. *p < 0.05 indicates a significant difference compared to the control group and **p < 0.001 indicates an extremely significant difference compared to the control group.
ACQUITY I-Class UPLC and Waters XEVO TQD MS (Milford, MA, USA) were used for the detection of vonoprazan and M-I with an ACQUITY UPLC BEH C18 chromatographic column (50 × 2.1 mm, 1.7 μm) at 40 °C. […] The injection volume of the sample was 2 μL. The scanning method was multiple reaction monitoring (MRM) with detection in positive ion mode and an ESI + ion source. Other mass spectrometry parameters were as follows: capillary voltage 2.0 kV, ion source temperature 150 °C, dissolvent temperature 500 °C, argon flow rate 0.15 mL/min, cone hole gas flow 50 L/h, solvent gas flow 1000 L/h. The precursor ion and product ion were m/z 346.04→314.97 for vonoprazan, m/z 347.50→205.00 for M-I, and m/z 285.10→193.10 for internal standard (IS), diazepam.

Where [5] appears, read: oral 10 mg/kg, control group (no poziotinib).
Setting [6] is: oral 10 mg/kg, poziotinib group (5 mg/kg oral pretreatment).
Where [7] appears, read: oral 10 mg/kg, poziotinib 5 mg/kg pretreatment.

As to `C=CC[C@@H]1/C=C(\C)C[C@H](C)C[C@H](OC)[C@H]2O[C@@](O)(C(=O)C(=O)N3CCCC[C@H]3C(=O)O[C@H](/C(C)=C/[C@@H]3CC[C@@H](O)[C@H](OC)C3)[C@H](C)[C@@H](O)CC1=O)[C@H](C)C[C@@H]2OC` [tacrolimus], the “increase of blood concentration of tacrolimus” value in data set [1] was 65.8%.
For orientation: Ki means a dissociation constant, usually derived from enzyme kinetics or from competition with a known ligand. As a reminder, the IC50 is the concentration that gives 50% inhibition. As to `C=CC(=O)N1CCC(Oc2cc3c(Nc4ccc(Cl)c(Cl)c4F)ncnc3cc2OC)CC1` [poziotinib], in data set [2] (Lineweaver-Burk plot), the inhibition mechanism entry was “mixed model of noncompetitive and uncompetitive inhibition”. In data set [2] (Lineweaver-Burk, slope of primary plot, read-out: inhibitory constant Ki), the Ki came to 0.574 µM. Also, the IC50 at 30 min in data set [2] (pH 7.4, probe vonoprazan 10 μM (metabolite M-I measured), 10 μM vonoprazan, NADPH 1 mM, 37 °C 30 min) came to 10.6 µM.
A word on the Km: it is the substrate concentration at which the rate is half of its maximum. By Cmax is commonly meant the maximum level reached in the sampled fluid or tissue. For orientation: Tmax means the time from dosing to the highest level. As a reminder, the half-life is the time needed for the level to fall by half in the phase considered. In the case of `CNCc1cc(-c2ccccc2F)n(S(=O)(=O)c2cccnc2)c1` [vonoprazan], the Km at 30 min in data set [3] was found to be 14.3 µM. Besides, the CL/F in data set [4] (control group) was 2710 mL/min/kg. Moreover, the CL/F in data set [4] (poziotinib pretreatment 5 mg/kg) is 431 mL/min/kg. In data set [4] (setting [5]), the Cmax is 5.69 ± 3.73 ng/mL, the Tmax is 0.63 ± 0.31 h, the half-life is 1.25 ± 0.77 h and the MRT last was 2.29 ± 0.36 h. For the same compound, in data set [4] (setting [5]), the MRT inf came out at 2.29 ± 0.36 h and the Vd/F amounted to 298 ± 191 L/kg. For the same compound, in data set [4] (setting [6]), the Cmax turned out to be 15.4 ± 4.98 ng/mL, the Tmax came out at 1.92 ± 2.06 h, the half-life is 2.84 ± 1.44 h and the MRT last came out at 5.26 ± 1.77 h. Besides, in data set [4] (setting [6]), the MRT inf was found to be 5.51 ± 2.06 h and the Vd/F turned out to be 90.5 ± 27.3 L/kg. For the same compound, in data set [4] (setting [7]), the “AUC(0-T) increase, poziotinib group vs control group” value is recorded as 6.02 fold; the “AUC(0-∞) increase, poziotinib group vs control group” value was determined as 6.11 fold; the “CLz/F reduction, poziotinib group vs control group” value came to 84%; the “Cmax increase, poziotinib group vs control group” value stood at 2.7 fold. Also, in data set [4] (setting [7]), the “MRT(0-T) increase, poziotinib group vs control group” value amounted to 2.30 fold; the “MRT(0-∞) increase, poziotinib group vs control group” value was determined as 2.41 fold; the “T1/2 increase, poziotinib group vs control group” value is listed as 2.2 fold; the “Tmax increase, poziotinib group vs control group” value is 3.0 fold. In data set [4] (setting [7]), the “Vz/F reduction, poziotinib group vs control group” value was found to be 70%.
